These results are taken from US7678815B2, “Thiazole-4-carboxyamide derivatives” (Hoffmann-La Roche Inc., priority 2005, dated 2010).

A word on the Ki: it is the equilibrium dissociation constant of an inhibitor or competing ligand from its target.

In the assay the target is T1, human mGlu 5a receptor (Homo sapiens, UniProt P41594).
T1 construct: expressed in transfected cells; host or cells: EBNA cells (transient transfection), cell membrane homogenates
In words: [3H]MPEP competition binding on membranes of EBNA cells transfected with human mGlu 5a receptor. The following applies: competition with [3H]MPEP (2 nM), 1 h at 4° C., Ki=IC50/[1+L/Kd]. The protocol: The pharmacological activity of the compounds was tested using the following method: For binding experiments, cDNA encoding human mGlu 5a receptor was transiently transfected into EBNA cells using a procedure described by Schlaeger and Christensen [Cytotechnology 15:1-13 (1998)]. Cell membrane homogenates were stored at −80° C. until the day of assay where upon they were thawed and resuspended and polytronized in 15 mM Tris-HCl, 120 mM NaCl, 100 mM KCl, 25 mM CaCl2, 25 mM MgCl2 binding buffer at pH 7.4 to a final assay concentration of 20 μg protein/well.
Saturation isotherms were determined by addition of twelve [^3H]MPEP concentrations (0.04-100 nM) to these membranes (in a total volume of 200 μl) for 1 h at 4° C. Competition experiments were performed with a fixed concentration of [^3H]MPEP (2 nM) and IC50 values of test compounds evaluated using 11 concentrations (0.3-10,000 nM). Incubations were performed for 1 h at 4° C.
At the end of the incubation, membranes were filtered onto unifilter (96-well white microplate with bonded GF/C filter preincubated 1 h in 0.1% PEI in wash buffer, Packard Bio-Science, Meriden, Conn.) with a Filtermate 96 harvester (Packard BioScience) and washed 3 times with cold 50 mM Tris-HCl, pH 7.4 buffer. Nonspecific binding was measured in the presence of 10 μM MPEP. The radioactivity on the filter was counted (3 min) on a Packard Top-count microplate scintillation counter with quenching correction after addition of 45 μl of microscint 40 (Canberra Packard S.A., Zürich, Switzerland) and shaking for 20 min.
For binding experiments the Ki values of the compounds tested are given. The Ki value is defined by the following formula: Ki=IC50/[1+L/Kd] in which the IC50 values are those concentrations of the compounds tested which cause 50% inhibition of the competing radioligand ([^3H]MPEP). L is the concentration of radioligand used in the binding experiment and the Kd value of the radioligand is empirically determined for each batch of membranes prepared.

T1 sequence (P41594 21-1180 isoform P41594-2 limits assumed): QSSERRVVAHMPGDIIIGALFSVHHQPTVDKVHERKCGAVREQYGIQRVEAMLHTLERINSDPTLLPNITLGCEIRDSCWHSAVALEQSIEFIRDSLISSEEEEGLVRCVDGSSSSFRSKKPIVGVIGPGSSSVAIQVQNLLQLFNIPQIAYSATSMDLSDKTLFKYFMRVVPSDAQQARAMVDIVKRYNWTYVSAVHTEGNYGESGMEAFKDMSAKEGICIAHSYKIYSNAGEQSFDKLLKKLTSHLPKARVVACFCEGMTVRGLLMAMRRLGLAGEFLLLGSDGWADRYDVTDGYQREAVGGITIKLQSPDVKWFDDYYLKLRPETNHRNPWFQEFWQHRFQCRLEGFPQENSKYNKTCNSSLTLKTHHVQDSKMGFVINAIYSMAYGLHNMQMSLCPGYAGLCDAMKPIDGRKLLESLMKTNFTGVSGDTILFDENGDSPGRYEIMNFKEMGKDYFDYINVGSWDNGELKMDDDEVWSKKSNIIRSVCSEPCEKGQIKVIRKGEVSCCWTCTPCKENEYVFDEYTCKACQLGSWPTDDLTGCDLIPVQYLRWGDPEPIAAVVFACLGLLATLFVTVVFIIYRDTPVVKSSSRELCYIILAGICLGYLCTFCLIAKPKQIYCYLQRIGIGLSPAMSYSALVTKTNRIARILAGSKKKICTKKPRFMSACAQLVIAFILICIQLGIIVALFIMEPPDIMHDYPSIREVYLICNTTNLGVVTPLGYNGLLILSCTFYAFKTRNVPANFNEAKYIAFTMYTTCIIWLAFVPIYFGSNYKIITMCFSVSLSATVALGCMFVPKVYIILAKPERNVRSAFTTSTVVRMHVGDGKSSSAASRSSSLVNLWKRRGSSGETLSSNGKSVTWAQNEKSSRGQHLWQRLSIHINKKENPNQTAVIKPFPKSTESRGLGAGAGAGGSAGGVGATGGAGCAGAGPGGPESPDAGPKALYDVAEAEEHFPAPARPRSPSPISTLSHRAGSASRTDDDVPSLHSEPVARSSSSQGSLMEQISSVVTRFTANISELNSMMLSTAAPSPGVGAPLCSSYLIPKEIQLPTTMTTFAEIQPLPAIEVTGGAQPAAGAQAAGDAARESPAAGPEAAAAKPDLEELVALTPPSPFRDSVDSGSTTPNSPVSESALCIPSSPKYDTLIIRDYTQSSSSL

As to `Cc1cccc(NC(=O)c2nc(C)sc2Nc2cccc(S(C)(=O)=O)c2)n1` [Example 149, 5-(3-Methanesulfonyl-phenylamino)-2-methyl-thiazole-4-carboxylic acid (6-methyl-pyridin-2-yl)-amide], the Ki was 53 nM.

Consider `Cc1nc(C(=O)Nc2cccc(Cl)c2)c(Nc2cccc(CNC(=O)OC(C)(C)C)c2)s1` [Example 145, {3-[4-(3-Chloro-phenylcarbamoyl)-2-methyl-thiazol-5-ylamino]-benzyl}-carbamic acid tert-butyl ester], for which the Ki was 40 nM.

Take `Cc1cccc(NC(=O)c2ncsc2Nc2c(C)noc2C)n1` [Example 74, 5-(3,5-Dimethyl-isoxazol-4-ylamino)-thiazole-4-carboxylic acid (6-methyl-pyridin-2-yl)-amide]: the Ki was determined as 99 nM.

For the compound `Cc1cccc(NC(=O)c2ncsc2Nc2cccnc2)n1` [Example 1, 5-(Pyridin-3-ylamino)-thiazole-4-carboxylic acid (6-methyl-pyridin-2-yl)-amide], the Ki stood at 29 nM.

With `CNc1scnc1C(=O)Nc1cccc(Cl)c1` [Example 24, 5-Methylamino-thiazole-4-carboxylic acid (3-chloro-phenyl)-amide], the Ki stood at 127 nM.

Turning to `Cc1cccc(NC(=O)c2ncsc2Nc2ccccc2)n1` [Example 13, 5-Phenylamino-thiazole-4-carboxylic acid (6-methyl-pyridin-2-yl)-amide], the Ki was 26 nM.

`O=C(Nc1cccc(Cl)c1)c1ncsc1Nc1cccnc1` [Example 2, 5-(Pyridin-3-ylamino)-thiazole-4-carboxylic acid (3-chloro-phenyl)-amide]: the inhibition constant Ki was 124 nM.

On to `CC(=O)c1cccc(Nc2scnc2C(=O)Nc2cccc(C)n2)c1` [Example 88, 5-(3-Acetyl-phenylamino)-thiazole-4-carboxylic acid (6-methyl-pyridin-2-yl)-amide], for which the Ki was found to be 18 nM.

`O=C(Nc1cccc(Cl)c1)c1ncsc1NC1CC1` [Example 18, 5-Cyclopropylamino-thiazole-4-carboxylic acid (3-chloro-phenyl)-amide]: the Ki came out at 458 nM.

For the compound `Cc1csc(NC(=O)c2ncsc2Nc2cccc(C#N)c2)n1` [Example 81, 5-(3-Cyano-phenylamino)-thiazole-4-carboxylic acid (4-methyl-thiazol-2-yl)-amide], the Ki was 19 nM.

Consider `Cc1nccc(NC(=O)c2nc(C)sc2Nc2cccc(C(N)=O)c2)n1` [Example 209, 5-(3-Carbamoyl-phenylamino)-2-methyl-thiazole-4-carboxylic acid (2-methyl-pyrimidin-4-yl)-amide], for which the Ki worked out at 40 nM.
